# Measurements as given in PubChem BioAssay (NCI).
#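 Five concentrations, 48 hours, 96-well plates. GI50 marks 50% less growth. Definition used: TGI = concentration required for complete inhibition of growth.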
# How the values were obtained:
# Assay in all cases: NCI-60 cell line screen, 48 h
# NCI/ADR-RES ovarian = tested on: NCI/ADR-RES ovarian
# PC-3 prostate = tested on: PC-3 prostate
# IGROV1 ovarian = tested on: IGROV1 ovarian
# OVCAR-3 ovarian = tested on: OVCAR-3 ovarian
# HT29 colon = tested on: HT29 colon
# SR leukemia = tested on: SR leukemia
# UO-31 renal = tested on: UO-31 renal
# SF-539 CNS = tested on: SF-539 CNS
# SNB-75 CNS = tested on: SNB-75 CNS
# ACHN renal = tested on: ACHN renal
# T-47D breast = tested on: T-47D breast
# 786-0 renal = tested on: 786-0 renal
# UACC-62 melanoma = tested on: UACC-62 melanoma
# HOP-92 NSCLC = tested on: HOP-92 NSCLC
# LOX IMVI melanoma = tested on: LOX IMVI melanoma
# OVCAR-8 ovarian = tested on: OVCAR-8 ovarian
# K-562 leukemia = tested on: K-562 leukemia
# HOP-62 NSCLC = tested on: HOP-62 NSCLC
# NCI-H23 lung = tested on: NCI-H23 lung
# EKVX NSCLC = tested on: EKVX NSCLC
# RXF 393 renal = tested on: RXF 393 renal
# TK-10 renal = tested on: TK-10 renal
# HCC-2998 colon = tested on: HCC-2998 colon
# HCT-116 colon = tested on: HCT-116 colon
# KM12 colon = tested on: KM12 colon
# HS 578T breast = tested on: HS 578T breast
# SK-MEL-28 melanoma = tested on: SK-MEL-28 melanoma
# SK-MEL-2 melanoma = tested on: SK-MEL-2 melanoma
# NCI-H226 lung = tested on: NCI-H226 lung
# MALME-3M melanoma = tested on: MALME-3M melanoma
# MCF7 breast = tested on: MCF7 breast
# NCI-H460 lung = tested on: NCI-H460 lung
# COLO 205 colon = tested on: COLO 205 colon
# RPMI-8226 leukemia = tested on: RPMI-8226 leukemia
# BT-549 breast = tested on: BT-549 breast
# SF-295 CNS = tested on: SF-295 CNS
# CAKI-1 renal = tested on: CAKI-1 renal
# HL-60(TB) leukemia = tested on: HL-60(TB) leukemia
# SN12C renal = tested on: SN12C renal
# OVCAR-5 ovarian = tested on: OVCAR-5 ovarian
# OVCAR-4 ovarian = tested on: OVCAR-4 ovarian
# U251 CNS = tested on: U251 CNS
# M14 melanoma = tested on: M14 melanoma
# SK-MEL-5 melanoma = tested on: SK-MEL-5 melanoma
# SNB-19 CNS = tested on: SNB-19 CNS
# MOLT-4 leukemia = tested on: MOLT-4 leukemia
# A498 renal = tested on: A498 renal
# MDA-MB-231 breast = tested on: MDA-MB-231 breast
# DU-145 prostate = tested on: DU-145 prostate
# SW-620 colon = tested on: SW-620 colon
# HCT-15 colon = tested on: HCT-15 colon
# UACC-257 melanoma = tested on: UACC-257 melanoma
# NCI-H522 lung = tested on: NCI-H522 lung
# CCRF-CEM leukemia = tested on: CCRF-CEM leukemia
# A549 NSCLC = tested on: A549 NSCLC
# SF-268 CNS = tested on: SF-268 CNS
# SK-OV-3 ovarian = tested on: SK-OV-3 ovarian
compound,measurement,setting,value
CSCCC(NC(=O)CNC(=O)C(CC(=O)O)NC(=O)C(NC(=O)C(NC(=O)C(NC(=O)CNC(=O)C(CCC(N)=O)NC(=O)C(CCSC)NC(=O)C(CC(=O)O)NC(=O)C(C)NC(=O)C(C)NC(=O)C(NC(=O)C(CO)NC(=O)C(N)CC(C)C)C(C)O)C(C)C)C(C)C)C(C)O)C(=O)NC(C)C(=O)NC(CO)C(=O)NCC(=O)NC(CC(C)C)C(=O)NC(CC(=O)O)C(=O)NC(CCCCN)C(=O)NC(CC(=O)O)C(=O)NC(Cc1ccc(O)cc1)C(=O)NC(CC(C)C)C(=O)NC(CCCCN)C(=O)N1CCCC1C(=O)NC(CC(=O)O)C(=O)NC(CC(=O)O)C(=O)O (centres undefined),GI50,NCI/ADR-RES ovarian,> 82.5 µM
same,TGI,NCI/ADR-RES ovarian,> 82.5 µM
same,GI50,PC-3 prostate,> 82.5 µM
same,TGI,PC-3 prostate,> 82.5 µM
same,GI50,IGROV1 ovarian,> 82.5 µM
same,TGI,IGROV1 ovarian,> 82.5 µM
same,GI50,OVCAR-3 ovarian,> 82.5 µM
same,TGI,OVCAR-3 ovarian,> 82.5 µM
same,GI50,HT29 colon,> 82.5 µM
same,TGI,HT29 colon,> 82.5 µM
same,GI50,SR leukemia,> 82.5 µM
same,TGI,SR leukemia,> 82.5 µM
same,GI50,UO-31 renal,> 82.5 µM
same,TGI,UO-31 renal,> 82.5 µM
same,GI50,SF-539 CNS,> 82.5 µM
same,TGI,SF-539 CNS,> 82.5 µM
same,GI50,SNB-75 CNS,> 82.5 µM
same,TGI,SNB-75 CNS,> 82.5 µM
same,GI50,ACHN renal,> 82.5 µM
same,TGI,ACHN renal,> 82.5 µM
same,GI50,T-47D breast,> 82.5 µM
same,TGI,T-47D breast,> 82.5 µM
same,GI50,786-0 renal,> 82.5 µM
same,TGI,786-0 renal,> 82.5 µM
same,GI50,UACC-62 melanoma,> 82.5 µM
same,TGI,UACC-62 melanoma,> 82.5 µM
same,GI50,HOP-92 NSCLC,> 82.5 µM
same,TGI,HOP-92 NSCLC,> 82.5 µM
same,GI50,LOX IMVI melanoma,> 82.5 µM
same,TGI,LOX IMVI melanoma,> 82.5 µM
same,GI50,OVCAR-8 ovarian,> 82.5 µM
same,TGI,OVCAR-8 ovarian,> 82.5 µM
same,GI50,K-562 leukemia,> 82.5 µM
same,TGI,K-562 leukemia,> 82.5 µM
same,GI50,HOP-62 NSCLC,> 82.5 µM
same,TGI,HOP-62 NSCLC,> 82.5 µM
same,GI50,NCI-H23 lung,> 82.5 µM
same,TGI,NCI-H23 lung,> 82.5 µM
same,GI50,EKVX NSCLC,> 82.5 µM
same,TGI,EKVX NSCLC,> 82.5 µM
same,GI50,RXF 393 renal,> 82.5 µM
same,TGI,RXF 393 renal,> 82.5 µM
same,GI50,TK-10 renal,> 82.5 µM
same,TGI,TK-10 renal,> 82.5 µM
same,GI50,HCC-2998 colon,> 82.5 µM
same,TGI,HCC-2998 colon,> 82.5 µM
same,GI50,HCT-116 colon,> 82.5 µM
same,TGI,HCT-116 colon,> 82.5 µM
same,GI50,KM12 colon,> 82.5 µM
same,TGI,KM12 colon,> 82.5 µM
same,GI50,HS 578T breast,> 82.5 µM
same,TGI,HS 578T breast,> 82.5 µM
same,GI50,SK-MEL-28 melanoma,> 82.5 µM
same,TGI,SK-MEL-28 melanoma,> 82.5 µM
same,GI50,SK-MEL-2 melanoma,> 82.5 µM
same,TGI,SK-MEL-2 melanoma,> 82.5 µM
same,GI50,NCI-H226 lung,> 82.5 µM
same,TGI,NCI-H226 lung,> 82.5 µM
same,GI50,MALME-3M melanoma,> 82.5 µM
same,TGI,MALME-3M melanoma,> 82.5 µM
same,GI50,MCF7 breast,> 82.5 µM
same,TGI,MCF7 breast,> 82.5 µM
same,GI50,NCI-H460 lung,> 82.5 µM
same,TGI,NCI-H460 lung,> 82.5 µM
same,GI50,COLO 205 colon,> 82.5 µM
same,TGI,COLO 205 colon,> 82.5 µM
same,GI50,RPMI-8226 leukemia,> 82.5 µM
same,TGI,RPMI-8226 leukemia,> 82.5 µM
same,GI50,BT-549 breast,> 82.5 µM
same,TGI,BT-549 breast,> 82.5 µM
same,GI50,SF-295 CNS,> 82.5 µM
same,TGI,SF-295 CNS,> 82.5 µM
same,GI50,CAKI-1 renal,> 82.5 µM
same,TGI,CAKI-1 renal,> 82.5 µM
same,GI50,HL-60(TB) leukemia,> 82.5 µM
same,TGI,HL-60(TB) leukemia,> 82.5 µM
same,GI50,SN12C renal,> 82.5 µM
same,TGI,SN12C renal,> 82.5 µM
same,GI50,OVCAR-5 ovarian,> 82.5 µM
same,TGI,OVCAR-5 ovarian,> 82.5 µM
same,GI50,OVCAR-4 ovarian,> 82.5 µM
same,TGI,OVCAR-4 ovarian,> 82.5 µM
same,GI50,U251 CNS,> 82.5 µM
same,TGI,U251 CNS,> 82.5 µM
same,GI50,M14 melanoma,> 82.5 µM
same,TGI,M14 melanoma,> 82.5 µM
same,GI50,SK-MEL-5 melanoma,> 82.5 µM
same,TGI,SK-MEL-5 melanoma,> 82.5 µM
same,GI50,SNB-19 CNS,> 82.5 µM
same,TGI,SNB-19 CNS,> 82.5 µM
same,GI50,MOLT-4 leukemia,> 82.5 µM
same,TGI,MOLT-4 leukemia,> 82.5 µM
same,GI50,A498 renal,> 82.5 µM
same,TGI,A498 renal,> 82.5 µM
same,GI50,MDA-MB-231 breast,> 82.5 µM
same,TGI,MDA-MB-231 breast,> 82.5 µM
same,GI50,DU-145 prostate,> 82.5 µM
same,TGI,DU-145 prostate,> 82.5 µM
same,GI50,SW-620 colon,> 82.5 µM
same,TGI,SW-620 colon,> 82.5 µM
same,GI50,HCT-15 colon,> 82.5 µM
same,TGI,HCT-15 colon,> 82.5 µM
same,GI50,UACC-257 melanoma,> 82.5 µM
same,TGI,UACC-257 melanoma,> 82.5 µM
same,GI50,NCI-H522 lung,> 82.5 µM
same,TGI,NCI-H522 lung,> 82.5 µM
same,GI50,CCRF-CEM leukemia,> 82.5 µM
same,TGI,CCRF-CEM leukemia,> 82.5 µM
same,GI50,A549 NSCLC,> 82.5 µM
same,TGI,A549 NSCLC,> 82.5 µM
same,GI50,SF-268 CNS,> 82.5 µM
same,TGI,SF-268 CNS,> 82.5 µM
same,GI50,SK-OV-3 ovarian,> 82.5 µM
same,TGI,SK-OV-3 ovarian,> 82.5 µM
